Like-named read-outs stand apart in the source and are kept apart here. Square brackets hold non-standard residues; d marks the D form. Peptide text beside a SMILES is read from it. Arg(Me2a) = CN(C)C(=N)NCCC[C@H](N)C(=O)O; Arg(Me2s) = CN=C(NC)NCCC[C@H](N)C(=O)O; Arg(Me) = CNC(=N)NCCC[C@H](N)C(=O)O
Tests used:
SPF30 (aa 65–150) = molecular target: T1, SPF30 (aa 65–150) (Homo sapiens, UniProt O75940); assay: Fluorescence polarization binding assay, SPF30 Tudor domain; conditions: fluorescein-labeled peptide, 20 mM Tris pH 7.5, 50 mM NaCl, 1 mM DTT, 0.01% Triton X-100, 25°C, average of three independent measurements, NB = no detectable binding
T1 construct: SPF30 (aa 65–150); His tag (pET28-MHL) (N); made in house; host or cells: Escherichia coli BL21 (DE3)
T1 sequence (O75940 65-150): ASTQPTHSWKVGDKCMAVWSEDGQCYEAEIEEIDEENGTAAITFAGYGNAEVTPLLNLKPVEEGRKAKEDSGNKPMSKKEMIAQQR
Protocol: (§1) Figure 1 Fluorescence polarization binding curves of TDRD3 (aa 520–633), SMN (aa 80–170), and SPF30 (aa 65–150) to the PIWIL1-R4 peptides. The buffer used in the fluorescence polarization assay is 20 mM Tris pH 7.5, 50 mM NaCl, 1 mM DTT and 0.01% Triton X-100. The data are measured at 25°C and corrected for background by subtracting the free-labeled peptide background. The Kd values are the average of three independent measurements.
(§2) All the regular and fluorescent peptides used this study were synthesized by Tufts University Core Services (Boston, USA). The fluorescence polarization assay was carried out as described before. The buffer used in the fluorescence polarization assay is 20 mM Tris pH 7.5, 50 mM NaCl, 1 mM DTT and 0.01% Triton X-100. An excitation wavelength of 485 nm and an emission wavelength of 528 nm are used. The data are measured at 25°C and corrected for background by subtracting the free-labeled peptide background. The data were collected by the Synergy 2 (BioTec, USA) fluorescence polarization program and were fit to one-site binding model using Origin 7 (MicroCal, Inc.). The Kd values are the average of three independent measurements.

SMN (aa 80–170) = molecular target: T2, SMN (aa 80–170) (Homo sapiens, UniProt Q16637); assay: Fluorescence polarization binding assay, SMN Tudor domain; conditions: for Kd: fluorescence polarization, fluorescein-labeled peptide, 20 mM Tris pH 7.5, 50 mM NaCl, 1 mM DTT, 0.01% Triton X-100, 25°C, average of three independent measurements, NB = no detectable binding
T2 construct: SMN (aa 80–170); His tag (pET28-MHL) (N); made in house; host or cells: Escherichia coli BL21 (DE3)
T2 sequence (Q16637 80-170): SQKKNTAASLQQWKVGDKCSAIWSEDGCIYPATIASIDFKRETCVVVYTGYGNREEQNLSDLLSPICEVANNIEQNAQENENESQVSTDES
Protocol: as §1, §2

SND1 (aa 650–910) [1] = molecular target: T3, SND1 (aa 650–910) (Homo sapiens, UniProt Q7KZF4); conditions: values marked * in Table 1; NB = no detectable binding; ref Liu K et al, PNAS, 2010 [20]; cited from earlier work
T3 construct: SND1 (aa 650–910)
T3 sequence (Q7KZF4 650-910): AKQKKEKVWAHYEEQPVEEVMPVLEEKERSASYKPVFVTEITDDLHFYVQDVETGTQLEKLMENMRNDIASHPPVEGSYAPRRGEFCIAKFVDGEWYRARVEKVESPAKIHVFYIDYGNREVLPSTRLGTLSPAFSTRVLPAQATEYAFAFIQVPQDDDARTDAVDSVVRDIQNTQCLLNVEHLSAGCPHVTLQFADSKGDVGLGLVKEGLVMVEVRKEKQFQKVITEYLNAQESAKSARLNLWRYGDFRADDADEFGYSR
From the text: Table 1 Binding affinities of TDRD3 (aa 520–633), SMN (aa 80–170), and SPF30 (aa 65–150) to different methyl-arginine peptides in comparison with SND1 (aa 650–910). | column: Kd (µM) / SND1 (aa 650–910)

TDRD3 (aa 520–633) [2] = molecular target: T4, TDRD3 (aa 520–633) (Homo sapiens, UniProt Q9H7E2); assay: ITC (Isothermal Titration Calorimetry) binding, TDRD3; conditions: 20 mM Tris pH 8.0, 200 mM NaCl, 25°C, one-site binding model, NB = no detectable binding
T4 construct: TDRD3 (aa 520–633); His tag (pET28-MHL) (N); made in house; host or cells: Escherichia coli BL21 (DE3)
T4 sequence (Q9H7E2 520-633): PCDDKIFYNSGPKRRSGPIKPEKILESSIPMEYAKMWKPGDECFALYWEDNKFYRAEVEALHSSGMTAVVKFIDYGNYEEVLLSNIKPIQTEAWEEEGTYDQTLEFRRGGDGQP
Protocol: Figure 2 Preferential binding of TDRD3 to asymmetrical dimethylated H3R17 peptide over symmetrical dimethylated H3R17 peptide. The ITC measurements were done in 20 mM Tris pH 8.0 and 200 mM NaCl using the same TDRD3 construct as used in Table 1. The measurements were taken at 25°C. Binding isotherms were plotted and analyzed using Origin Software (MicroCal Inc.). The ITC measurements were fit to a one-site binding model. (A) Histone H3R17me2a peptide (TGGKAPRme2aKQLATKA). (B) Histone H3R17me2s peptide (TGGKAPRme2sKQLATKA). (C) PIWIL1_R4me2a peptide (TGRme2aARARA). TEXT PRINTED IN THE PICTURE: (A) H3R17me2a: Kd>1000μM | (B) H3R17me2s: No binding | (C) PIWIL1_R4me2a: Kd>500μM
The protocol for ITC (Isothermal Titration Calorimetry) was carried out as described before. The ITC buffer used in this study is 20 mM Tris pH 8.0 and 200 mM NaCl. The measurements were taken at 25°C. Binding isotherms were plotted and analyzed using Origin Software (MicroCal Inc.). The ITC measurements were fit to a one-site binding model.

TDRD3 (aa 520–633) [3] = molecular target: T4, TDRD3 (aa 520–633); assay: Fluorescence polarization binding assay, TDRD3 Tudor domain; conditions: fluorescein-labeled peptide, 20 mM Tris pH 7.5, 50 mM NaCl, 1 mM DTT, 0.01% Triton X-100, 25°C, average of three independent measurements, NB = no detectable binding
Protocol: TDRD3 contains a Tudor domain at its C-terminus. […] In order to characterize its binding specificity and affinity quantitatively, we performed a series of fluorescence polarization (FP) binding assays using our fluorescein-labeled peptide library, which includes GAR motif-containing SmD3 and PIWIL1 peptides, PGM motif-containing SmB peptides, and histone H3R2 peptides (Table 1 and Fig. 1). A low salt concentration (50 mM NaCl) is used in the FP binding assay due to the weak binding affinities of these proteins to their ligands. At this salt concentration, the binding affinities are increased about four times compared to the data measured at 200 mM NaCl (Fig. S1), which will save the reagents and make the Kd measurement more reliable. […] Therefore, TDRD3 has a different binding selectivity than SND1, which we have previously established that the extended Tudor domain of SND1 preferentially binds symmetrically dimethylated arginine PIWIL1 peptides. Similar to SND1, the binding selectivity of TDRD3 among these three different arginine methylation marks is about 2 to 4-fold (Table 1).
as §1, §2

SND1 (aa 650–910) [4] = molecular target: T3, SND1 (aa 650–910); assay: Fluorescence polarization binding assay, SND1 extended Tudor domain; conditions: values without asterisk in Table 1, NB = no detectable binding
Protocol: as §2

| Kd (SPF30 (aa 65–150)) | Kd (SMN (aa 80–170)) | Kd (TDRD3 (aa 520–633) [3]) | Molecule | further results |
| --- | --- | --- | --- | --- |
| > 500 µM | > 150 µM | > 500 µM | CNC(=N)NCCC[C@H](NC(=O)CNC(=O)[C@@H](N)[C@@H](C)O)C(=O)N[C@@H](C)C(=O)N[C@@H](CCCNC(=N)N)C(=O)N[C@@H](C)C(=O)N[C@@H](CCCNC(=N)N)C(=O)N[C@@H](C)C(=O)N[C@@H](CCCNC(=N)N)C(=O)NCC(=O)N[C@@H](CCCNC(=N)N)C(=O)N[C@@H](C)C(=O)N[C@@H](CCCNC(=N)N)C(=O)NCC(=O)N[C@@H](CCC(N)=O)C(=O)N[C@@H](CCC(=O)O)C(=O)O [PIWIL1-R4me1] (H-TG[Arg(Me)]ARARARGRARGQE-OH; N-terminus and C-terminus assumed) | binding affinity to SMN, times weaker than for PIWIL1_R4me2s (SMN (aa 80–170); ratio of FP Kd values relative to PIWIL1_R4me2s (Kd 34 µM)): over 4 times |
| > 500 µM | > 400 µM | – | CN=C(NC)NCCC[C@H](NC(=O)[C@H](CCSC)NC(=O)CNC(=O)[C@@H]1CCCN1C(=O)[C@@H]1CCCN1)C(=O)N1CCC[C@H]1C(=O)N1CCC[C@H]1C(=O)N1CCC[C@H]1C(=O)N1CCC[C@H]1C(=O)NCC(=O)O [PGM(SmB214SD)] (H-PPGM[Arg(Me2s)]PPPPG-OH; N-terminus and C-terminus assumed) | Kd (SND1 (aa 650–910) [4]): > 500 µM |
| > 500 µM | > 500 µM | – | ARTKQTARK(me)1/2/3STGGKA [Histone H3K9me1/2/3, histone H3 peptides mono-, di- or trimethylated at K9, reported in one line] | Kd (SND1 (aa 650–910) [1]): > 500 µM |
| > 500 µM | > 300 µM | – | CN=C(NC)NCCC[C@H](NC(=O)CNC(=O)[C@@H]1CCCN1C(=O)[C@@H]1CCCN1C(=O)[C@@H](N)Cc1ccc(O)cc1)C(=O)NCC(=O)NCC(=O)N1CCC[C@H]1C(=O)N1CCC[C@H]1C(=O)N1CCC[C@H]1C(=O)O [PGM(SmB165SD)] (H-YPPG[Arg(Me2s)]GGPPP-OH; N-terminus and C-terminus assumed) | Kd (SND1 (aa 650–910) [4]): > 500 µM |

The remaining lines, values behind:

| Molecule | Kd (SPF30 (aa 65–150)) | Kd (SMN (aa 80–170)) | Kd (TDRD3 (aa 520–633) [3]) | further results |
| --- | --- | --- | --- | --- |
| ARTK (me)1/2/3 QTARKST [Histone H3K4me1/2/3, histone H3 peptides mono-, di- or trimethylated at K4, reported in one line] | > 500 µM | > 500 µM | – | Kd (SND1 (aa 650–910) [1]): > 500 µM |
| CN=C(NC)NCCC[C@H](NC(=O)[C@@H]1CCCN1C(=O)[C@H](C)NC(=O)[C@H](CCCCN)NC(=O)CNC(=O)CNC(=O)[C@@H](N)[C@@H](C)O)C(=O)N[C@@H](CCCCN)C(=O)N[C@@H](CCC(N)=O)C(=O)N[C@@H](CC(C)C)C(=O)N[C@@H](C)C(=O)N[C@H](C(=O)N[C@@H](CCCCN)C(=O)N[C@@H](C)C(=O)O)[C@@H](C)O [H3R17me2s] | – | – | – | Kd (TDRD3 (aa 520–633) [2]): > 500 µM; Kd TDRD3 (aa 520–633) by ITC (TDRD3 (aa 520–633) [2]): No binding |
| C[C@H](NC(=O)[C@H](CCCNC(=N)N)NC(=O)[C@H](C)NC(=O)[C@H](CCCNC(=N)N)NC(=O)[C@H](C)NC(=O)[C@H](CCCNC(=N)N(C)C)NC(=O)CNC(=O)[C@@H](N)[C@@H](C)O)C(=O)O [PIWIL1_R4me2a peptide (TGRme2aARARA)] (H-TG[Arg(Me2a)]ARARA-OH; N-terminus and C-terminus assumed) | – | – | – | Kd (TDRD3 (aa 520–633) [2]): > 500 µM |
| C[C@H](NC(=O)[C@H](CCCNC(=N)N)NC(=O)CNC(=O)[C@H](CCCNC(=N)N)NC(=O)[C@H](C)NC(=O)[C@H](CCCNC(=N)N)NC(=O)[C@H](C)NC(=O)[C@H](CCCNC(=N)N)NC(=O)[C@H](C)NC(=O)[C@H](CCCNC(=N)N(C)C)NC(=O)CNC(=O)[C@@H](N)[C@@H](C)O)C(=O)N[C@@H](CCCNC(=N)N)C(=O)NCC(=O)N[C@@H](CCC(N)=O)C(=O)N[C@@H](CCC(=O)O)C(=O)O [PIWIL1-R4me2a] (H-TG[Arg(Me2a)]ARARARGRARGQE-OH) | > 400 µM | – | > 150 µM | – |
| CN=C(NC)NCCC[C@H](NC(=O)[C@H](CCSC)NC(=O)CNC(=O)[C@@H]1CCCN1C(=O)[C@@H]1CCCN1)C(=O)NCC(=O)N1CCC[C@H]1C(=O)N1CCC[C@H]1C(=O)N1CCC[C@H]1C(=O)O [PGM(SmB221SD)] (H-PPGM[Arg(Me2s)]GPPP-OH; N-terminus and C-terminus assumed) | > 500 µM | > 500 µM | – | Kd (SND1 (aa 650–910) [4]): > 500 µM |
| CC(C)C[C@H](NC(=O)[C@H](CCC(N)=O)NC(=O)[C@H](CCCCN)NC(=O)[C@H](CCCNC(=N)N(C)C)NC(=O)[C@@H]1CCCN1C(=O)[C@H](C)NC(=O)[C@H](CCCCN)NC(=O)CNC(=O)CNC(=O)[C@@H](N)[C@@H](C)O)C(=O)N[C@@H](C)C(=O)N[C@H](C(=O)N[C@@H](CCCCN)C(=O)N[C@@H](C)C(=O)O)[C@@H](C)O [H3R17me2a] | – | – | – | Kd (TDRD3 (aa 520–633) [2]): > 1000 µM |
| CN=C(NC)NCCC[C@H](NC(=O)CNC(=O)[C@@H](N)[C@@H](C)O)C(=O)N[C@@H](C)C(=O)N[C@@H](CCCNC(=N)N)C(=O)N[C@@H](C)C(=O)N[C@@H](CCCNC(=N)N)C(=O)N[C@@H](C)C(=O)N[C@@H](CCCNC(=N)N)C(=O)NCC(=O)N[C@@H](CCCNC(=N)N)C(=O)N[C@@H](C)C(=O)N[C@@H](CCCNC(=N)N)C(=O)NCC(=O)N[C@@H](CCC(N)=O)C(=O)N[C@@H](CCC(=O)O)C(=O)O [PIWIL1-R4me2s] (H-TG[Arg(Me2s)]ARARARGRARGQE-OH) | > 200 µM | – | > 300 µM | – |
| CN=C(NC)NCCC[C@H](NC(=O)CNC(=O)[C@H](CCCNC(=N)N)NC(=O)CNC(=O)CN)C(=O)NCC(=O)N[C@@H](CCCNC(=N)N)C(=O)NCC(=O)O [SmD3RSDMA] (H-GGRG[Arg(Me2s)]GRG-OH) | > 500 µM | – | > 400 µM | – |

From article PMC3281842, “Crystal Structure of TDRD3 and Methyl-Arginine Binding Characterization of TDRD3, SMN and SPF30” (PLoS ONE, 2012)
